From the supplement of paper PMC10307832

Assays:
Test in all cases: relative viability (nuclei count vs DMSO), 5 days (fraction); higher = more cells survive
Tozasertib + Linsitinib = compound: Cc1cc(Nc2cc(N3CCN(C)CC3)nc(Sc3ccc(NC(=O)C4CC4)cc3)n2)n[nH]1 [Tozasertib] + C[C@]1(O)C[C@@H](c2nc(-c3ccc4ccc(-c5ccccc5)nc4c3)c3c(N)nccn32)C1 [Linsitinib] (partner 1 µM)
Method in brief: (§1)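 Lung cancer cell lines in 1536-well plates got either a single drug or a fixed anchor-drug dose together with five library-drug doses (not always all listed) in √10 steps, by pin tool, on the day after seeding. Nuclei were counted after 5 days, and relative viability is the treated-to-vehicle ratio of nuclei counts. Values are medians of duplicate plates.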

Tozasertib + Pemetrexed = compound: Cc1cc(Nc2cc(N3CCN(C)CC3)nc(Sc3ccc(NC(=O)C4CC4)cc3)n2)n[nH]1 [Tozasertib] + Nc1nc2[nH]cc(CCc3ccc(C(=O)N[C@@H](CCC(=O)O)C(=O)O)cc3)c2c(=O)[nH]1 [Pemetrexed] (partner 0.2 µM)
Method in brief: as §1

Tozasertib + Decitabine = compound: Cc1cc(Nc2cc(N3CCN(C)CC3)nc(Sc3ccc(NC(=O)C4CC4)cc3)n2)n[nH]1 [Tozasertib] + Nc1ncn([C@H]2C[C@H](O)[C@@H](CO)O2)c(=O)n1 [Decitabine] (partner 2 µM)
Method in brief: as §1

Tozasertib + AZD7762 = compound: Cc1cc(Nc2cc(N3CCN(C)CC3)nc(Sc3ccc(NC(=O)C4CC4)cc3)n2)n[nH]1 [Tozasertib] + NC(=O)Nc1cc(-c2cccc(F)c2)sc1C(=O)N[C@H]1CCCNC1 [AZD7762] (partner 0.2 µM)
Method in brief: as §1

Tozasertib + Crizotinib = compound: Cc1cc(Nc2cc(N3CCN(C)CC3)nc(Sc3ccc(NC(=O)C4CC4)cc3)n2)n[nH]1 [Tozasertib] + C[C@@H](Oc1cc(-c2cnn(C3CCNCC3)c2)cnc1N)c1c(Cl)ccc(F)c1Cl [Crizotinib] (partner 1 µM)
Method in brief: as §1

Cell Line	relative viability (Tozasertib + Linsitinib; first compound 0.004 µM)	relative viability (Tozasertib + Linsitinib; first compound 0.01265 µM)	relative viability (Tozasertib + Linsitinib; first compound 0.04 µM)	relative viability (Tozasertib + Linsitinib; first compound 0.1265 µM)	relative viability (Tozasertib + Pemetrexed; first compound 0.004 µM)	relative viability (Tozasertib + Pemetrexed; first compound 0.01265 µM)	relative viability (Tozasertib + Pemetrexed; first compound 0.04 µM)	relative viability (Tozasertib + Pemetrexed; first compound 0.1265 µM)	relative viability (Tozasertib + Decitabine; first compound 0.004 µM)	relative viability (Tozasertib + Decitabine; first compound 0.01265 µM)	relative viability (Tozasertib + Decitabine; first compound 0.04 µM)	relative viability (Tozasertib + Decitabine; first compound 0.1265 µM)	relative viability (Tozasertib + AZD7762; first compound 0.004 µM)	relative viability (Tozasertib + AZD7762; first compound 0.01265 µM)	relative viability (Tozasertib + AZD7762; first compound 0.04 µM)	relative viability (Tozasertib + AZD7762; first compound 0.1265 µM)	relative viability (Tozasertib + Crizotinib; first compound 0.004 µM)	relative viability (Tozasertib + Crizotinib; first compound 0.04 µM)	relative viability (Tozasertib + Crizotinib; first compound 0.1265 µM)	relative viability (Tozasertib + Crizotinib; first compound 0.01265 µM)
NCI-H1734	0.894	0.938	0.938	0.616	0.424	0.351	0.453	0.436	0.501	0.51	0.561	0.401	0.506	0.559	0.532	0.228	0.703	0.67	0.258	
201T	1.02	0.955	1.08	1.04	0.33	0.283	0.377	0.362	0.854	0.844	0.874	0.83	0.549	0.63	0.581	0.75	1.02	1.06	1.01	1.05
LK-2	0.639	0.541	0.442	0.272	0.307	0.354	0.287	0.134	0.428	0.291	0.363	0.141	0.466	0.54	0.624	0.138	0.19	0.239	0.244	
HCC-44	0.653	0.606	0.691	0.546	0.677	0.552	0.604	0.599	0.935	0.917	0.87	0.766	1.05	0.994	0.929	0.845	0.861	0.801	0.705	0.891
NCI-H1355	0.751	0.816	0.912	0.722	1.12	0.974	1.03	0.948	0.357	0.35	0.33	0.357	0.76	0.698	0.77	0.661	1.09	1.09	0.775	1.09
PC-3 [JPC-3]	0.902	0.935	0.971	0.972	1.08	1.01	1.21	0.919	0.808	0.889	0.828	0.793	0.789	0.734	0.774	0.684	0.884	0.94	0.945	0.973
UMC-11	1.1	1.03	1.06	0.173	0.852	0.809	0.78	0.26	0.597	0.499	0.548	0.189					0.478	0.416	0.118	0.568
NCI-H1395	1.57	0.974	1.16	0.75	0.979	0.797	0.864	0.584	0.724	0.674	0.673	0.524	0.385	0.414	0.389	0.397				
SK-LU-1	1.32	1.09	1.03	0.957	1.05	0.961	1.09	0.964	0.653	0.678		0.649					0.932		0.889	0.977
NCI-H2405	1.03	0.944		0.962	1.01	1.12	0.973	0.894	0.721	0.699	0.715	0.683	0.753		0.612	0.547	0.844	0.857	0.67	0.83
NCI-H1915	1.1	1.06		1.05	0.46	0.477	0.474	0.412	0.268	0.263	0.236	0.261	0.75	0.718	0.659	0.493	0.98	0.873	0.721	0.889
NCI-H1651	1.19	0.899	0.972	0.923	0.593	0.615	0.582	0.433	0.608	0.623	0.611	0.437	0.469	0.464	0.498	0.422	0.892	0.906	0.867	0.81
NCI-H1703	1.26	0.833	0.808	0.626									0.0927		0.126	0.12	1.58	0.318	0.24	0.848
HCC-827	1.02	1		0.84	0.254	0.239	0.293	0.262	0.207	0.283	0.305	0.264	0.16	0.204	0.23	0.2	1.02	0.927	0.719	0.82
HCC-78	0.661	0.452	0.588	0.439	0.938	0.901	0.919	0.881	0.746	0.598	0.763	0.595	0.806	0.519	0.668	0.477	0.333	0.356	0.288	0.324
CAL-12T	0.857	0.804	0.793	0.64	1.3	1.14	1.25	1.01					0.563	0.553	0.545	0.494	0.823	0.454	0.325	0.635
HCC-366	0.766	0.6	0.755	0.101	0.173	0.145	0.184	0.136	0.32	0.314	0.314	0.169	0.355	0.282	0.337	0.203		0.257	0.039	0.472
